Reference: patent publication US10626081B2, “Farnesoid X receptor agonists and uses thereof” (Metacrine, Inc., priority 2015, dated 2020)

What was measured:
FXR [1] = target: T1, FXR (Homo sapiens, UniProt Q96RI1); experiment: In Vitro FXR Assay (PGL3): luciferase reporter in transfected CV-1 cells; assay type: cell-based; conditions: CV-1 cells transfected with hFXR, hRXR, PGL3-ECRE*6-luc; 18 h incubation; luminescence
T1 construct: expressed in transfected cells; host or cells: CV-1 cells
T1 sequence (Q96RI1 1-486): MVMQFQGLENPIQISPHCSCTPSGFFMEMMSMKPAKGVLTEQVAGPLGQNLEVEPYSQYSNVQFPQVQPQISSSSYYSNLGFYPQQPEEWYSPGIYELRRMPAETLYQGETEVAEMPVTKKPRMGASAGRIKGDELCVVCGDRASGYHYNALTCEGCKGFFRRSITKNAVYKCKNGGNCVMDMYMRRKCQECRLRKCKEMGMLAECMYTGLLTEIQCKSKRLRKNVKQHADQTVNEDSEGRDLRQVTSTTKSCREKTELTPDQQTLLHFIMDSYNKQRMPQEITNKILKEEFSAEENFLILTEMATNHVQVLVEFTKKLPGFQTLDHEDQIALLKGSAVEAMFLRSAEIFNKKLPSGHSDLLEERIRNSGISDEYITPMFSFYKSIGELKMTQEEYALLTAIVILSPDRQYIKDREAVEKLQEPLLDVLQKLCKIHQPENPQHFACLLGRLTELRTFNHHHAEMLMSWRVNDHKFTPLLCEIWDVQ
T1 sequence (P19793 1-462 partner): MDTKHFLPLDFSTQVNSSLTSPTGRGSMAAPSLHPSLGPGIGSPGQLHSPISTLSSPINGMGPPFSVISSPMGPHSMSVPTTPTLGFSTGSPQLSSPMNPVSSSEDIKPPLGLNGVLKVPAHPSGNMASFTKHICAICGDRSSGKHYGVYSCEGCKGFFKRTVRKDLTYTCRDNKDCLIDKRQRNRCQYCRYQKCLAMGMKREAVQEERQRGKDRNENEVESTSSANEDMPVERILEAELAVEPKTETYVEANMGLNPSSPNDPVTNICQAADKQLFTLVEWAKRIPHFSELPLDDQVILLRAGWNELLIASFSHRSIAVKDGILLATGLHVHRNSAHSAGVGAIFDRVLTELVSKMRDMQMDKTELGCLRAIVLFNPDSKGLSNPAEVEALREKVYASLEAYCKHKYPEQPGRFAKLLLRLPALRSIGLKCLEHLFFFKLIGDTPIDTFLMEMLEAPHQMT
How it was run: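 CV-1 cells in charcoal-stripped FBS were transiently co-transfected with full-length human FXR, RXR, an ECRE×6-luciferase reporter, β-gal and YFP plasmids. Transfected cells were reseeded onto half-log compound dilutions and incubated 18 h. Luciferase luminescence was read after lysis, and EC50 was determined.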

FXR [2] = target: T1, FXR; experiment: In Vitro FXR Assay (TK): TK-ECRE-luc reporter in transfected CV-1 cells; assay type: cell-based; conditions: CV-1 cells transfected with hFXR, hRXR, 18 h incubation, luminescence
How it was run: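 Luciferase read-out from lysed CV-1 cells exposed 18 h to DMSO-diluted compounds. Cells had been transfected overnight with expression plasmids for hFXR and hRXR plus TK-ECRE-luc reporter and pCMX-YFP, grown in charcoal-stripped serum at 37 °C, 5% CO2.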

Compound | Cmpd/Fex (ratio of the EC50 for the test compound relative to the EC50 of the Fexaramine control) (FXR [1]) | EC50 (FXR [2]) [µM]
COC(=O)/C=C/c1cccc(N(Cc2ccc(N3CCCCC3)cc2)C(=O)C2CCCCC2)c1 [compound 78, (E)-Methyl 3-(3-(N-(4-(piperidin-1-yl)benzyl)cyclohexanecarboxamido)phenyl) acrylate] | ++ (‘++’ means Cmpd/Fex > 10 & < 100) | 1 to 10
COC(=O)/C=C/c1cccc(N(Cc2cccc3ccccc23)C(=O)C2CCCCC2)c1 [compound 80, (E)-Methyl 3-(3-(N-(naphthalen-1-ylmethyl)cyclohexanecarboxamido)phenyl) acrylate] | + (‘+’ means Cmpd/Fex > 100) | > 10
COC(=O)/C=C/c1cccc(N(Cc2ccccc2-c2ccccc2)C(=O)C2CCCCC2)c1 [compound 81, (E)-Methyl 3-(3-(N-([1,1′-biphenyl]-2-ylmethyl)cyclohexanecarboxamido)phenyl) acrylate] | + (‘+’ means Cmpd/Fex > 100) | > 10
COC(=O)/C=C/c1cccc(N(Cc2cccc(-c3ccccc3)c2)C(=O)C2CCCCC2)c1 [compound 82, (E)-Methyl 3-(3-(N-([1,1′-biphenyl]-3-ylmethyl)cyclohexanecarboxamido)phenyl) acrylate] | + (‘+’ means Cmpd/Fex > 100) | > 10
CC(C)OC(=O)/C=C/c1cccc(N(Cc2ccc(-c3ccc(N(C)C)cc3)cc2)C(=O)C2CCCCC2)c1 [compound 83, (E)-iso-Propyl 3-(3-(N-((4′-(dimethylamino)-[1,1′-biphenyl]-4-yl)methyl)cyclohexanecarboxamido)phenyl) acrylate] | +++ (‘+++’ means Cmpd/Fex < 10) | 1 to 10
CCOC(=O)/C=C/c1cccc(N(Cc2ccc(-c3ccc(N(C)C)cc3)cc2)C(=O)C2CCCCC2)c1 [compound 84, (E)-Ethyl 3-(3-(N-((4′-(dimethylamino)-[1,1′-biphenyl]-4-yl)methyl)cyclohexanecarboxamido)phenyl) acrylate] | +++ (‘+++’ means Cmpd/Fex < 10) | ≤ 1
CCc1cc(/C=C/C(=O)OC)cc(N(Cc2ccc(-c3ccc(N(C)C)cc3)cc2)C(=O)C2CCCCC2)c1 [compound 85, (E)-Methyl 3-(3-(N-((4′-(dimethylamino)-[1,1′-biphenyl]-4-yl)methyl)cyclohexanecarboxamido)-5-ethylphenyl)acrylate] | +++ (‘+++’ means Cmpd/Fex < 10) | 1 to 10
CN(C)c1ccc(-c2ccc(CN(C(=O)C3CCCCC3)c3cccc(/C=C/C(=O)OCCO)c3)cc2)cc1 [compound 86, (E)-2-Hydroxyethyl 3-(3-(N-((4′-(dimethylamino)-[1,1′-biphenyl]-4-yl)methyl)cyclohexanecarboxamido)phenyl) acrylate] | +++ (‘+++’ means Cmpd/Fex < 10) | 1 to 10
COC(=O)C#Cc1cccc(N(Cc2ccc(-c3ccc(N(C)C)cc3)cc2)C(=O)C2CCCCC2)c1 [compound 87, Methyl 3-(3-(N-((4′-(Dimethylamino)-[1,1′-biphenyl]-4-yl)methyl)cyclohexanecarboxamido)phenyl) propiolate] | +++ (‘+++’ means Cmpd/Fex < 10) | ≤ 1
CN(C)c1ccc(-c2ccc(CN(C(=O)C3CCCCC3)c3cccc(/C=C/C(=O)O)c3)cc2)cc1 [compound 88, (E)-3-(3-(N-((4′-(dimethylamino)-[1,1′-biphenyl]-4-yl)methyl)cyclohexanecarboxamido)phenyl)acrylic acid] | + (‘+’ means Cmpd/Fex > 100) | > 10
CN(C)c1ccc(-c2ccc(CN(c3cccc(/C=C/C(=O)O)c3)C(=O)[C@H]3CC[C@H](O)CC3)cc2)cc1 [compound 89, (E)-3-(3-((1s,4s)-N-((4′-(Dimethylamino)-[1,1′-biphenyl]-4-yl)methyl)-4-hydroxycyclohexane-carboxamido)phenyl) acrylic acid] | + (‘+’ means Cmpd/Fex > 100) | > 10
COC(=O)CCc1cc(C)cc(N(Cc2ccc(-c3ccc(N(C)C)cc3)cc2)C(=O)C2CCCCC2)c1 [compound 90, Methyl 3-(3-(N-((4′-(dimethylamino)-[1,1′-biphenyl]-4-yl)methyl)cyclohexanecarboxamido)-5-methylphenyl)propanoate] | +++ (‘+++’ means Cmpd/Fex < 10) | 1 to 10
COC(=O)CCc1cc(N(Cc2ccc(-c3ccc(N(C)C)cc3)cc2)C(=O)C2CCCCC2)ccc1C [compound 91, Methyl 3-(5-(N-((4′-(dimethylamino)-[1,1′-biphenyl]-4-yl)methyl)cyclohexanecarboxamido)-2-methylphenyl)propanoate] | + (‘+’ means Cmpd/Fex > 100) | > 10
COC(=O)CCc1cccc(N(Cc2ccc(-c3ccc(N(C)C)cc3)cc2)C(=O)C2CCCCC2)c1C [compound 92, Methyl 3-(3-(N-((4′-(dimethylamino)-[1,1′-biphenyl]-4-yl)methyl)cyclohexanecarboxamido)-2-methylphenyl)propanoate] | + (‘+’ means Cmpd/Fex > 100) | 1 to 10
COC(=O)CCc1ccc(C)c(N(Cc2ccc(-c3ccc(N(C)C)cc3)cc2)C(=O)C2CCCCC2)c1 [compound 93, Methyl 3-(3-(N-((4′-(dimethylamino)-[1,1′-biphenyl]-4-yl)methyl)cyclohexanecarboxamido)-4-methylphenyl)propanoate] | ++ (‘++’ means Cmpd/Fex > 10 & < 100) | > 10
COC(=O)CC(C)c1cccc(N(Cc2ccc(-c3ccc(N(C)C)cc3)cc2)C(=O)C2CCCCC2)c1 (stereo not shown) [compound 94, Methyl 3-(3-(N-((4′-(dimethylamino)-[1,1′-biphenyl]-4-yl)methyl)cyclohexanecarboxamido)phenyl) butanoate] | ++ (‘++’ means Cmpd/Fex > 10 & < 100) | 1 to 10
COC(=O)C(C)Cc1cccc(N(Cc2ccc(-c3ccc(N(C)C)cc3)cc2)C(=O)C2CCCCC2)c1 (stereo not shown) [compound 95, Methyl 3-(3-(N-((4′-(dimethylamino)-[1,1′-biphenyl]-4-yl)methyl)cyclohexanecarboxamido)phenyl)-2-methylpropanoate] | ++ (‘++’ means Cmpd/Fex > 10 & < 100) | 1 to 10
